From ChEMBL document CHEMBL1629650 (2009)
In brackets after ≈: the same amount, converted by molar mass.

What was measured:
Format in all cases: functional
[1] = tested on: Mycobacterium tuberculosis; experiment: Antibacterial activity against HYG cassette-positive Mycobacterium tuberculosis Rv8102 harboring embB M306V mutant gene by modified conventional agar proportion method
[2] = tested on: Mycobacterium tuberculosis; experiment: Antibacterial activity against Mycobacterium tuberculosis B59 harboring embB ATG-GTG (M306V) mutation in embB by modified conventional agar proportion method
[3] = tested on: Mycobacterium tuberculosis; experiment: Antibacterial activity against Mycobacterium tuberculosis B64 harboring embB ATG-GTG (M306V) mutation in embB by modified conventional agar proportion method
[4] = tested on: Mycobacterium tuberculosis; experiment: Antibacterial activity against HYG cassette-positive Mycobacterium tuberculosis BAS7 harboring embB M306I mutant gene by modified conventional agar proportion method
[5] = tested on: Mycobacterium tuberculosis; experiment: Antibacterial activity against HYG cassette-positive Mycobacterium tuberculosis RvAS4 harboring embB M306I mutant gene by modified conventional agar proportion method
[6] = tested on: Mycobacterium tuberculosis; experiment: Antibacterial activity against HYG cassette-positive Mycobacterium tuberculosis RvAS1 harboring embB M306V mutant gene by modified conventional agar proportion method
[7] = tested on: Mycobacterium tuberculosis; experiment: Antibacterial activity against Mycobacterium tuberculosis B70 harboring embB ATG-ATC (M306I) mutation in embB by modified conventional agar proportion method
[8] = tested on: Mycobacterium tuberculosis; experiment: Antibacterial activity against Mycobacterium tuberculosis Rv31 harboring embB GAT-TAT (D328Y) mutation in embB by modified conventional agar proportion method
[9] = tested on: Mycobacterium tuberculosis; experiment: Antibacterial activity against HYG cassette-negative EMB-resistant Mycobacterium tuberculosis Rv8 harboring embB M306V mutant gene by modified conventional agar proportion method
[10] = tested on: Mycobacterium tuberculosis; experiment: Antibacterial activity against Mycobacterium tuberculosis Rv11 harboring embB ATG-CTG (M306L) mutation in embB by modified conventional agar proportion method
[11] = tested on: Mycobacterium tuberculosis; experiment: Antibacterial activity against Mycobacterium tuberculosis B85 harboring embB ATG-ATA (M306I) mutation in embB by modified conventional agar proportion method
[12] = tested on: Mycobacterium tuberculosis; experiment: Antibacterial activity against HYG cassette-positive Mycobacterium tuberculosis BAS5 harboring embB M306V mutant gene by modified conventional agar proportion method
[13] = tested on: Mycobacterium tuberculosis; experiment: Antibacterial activity against Mycobacterium tuberculosis B79 harboring embB GGC-CGC (G324R) mutation in embB by modified conventional agar proportion method
[14] = tested on: Mycobacterium tuberculosis; experiment: Antibacterial activity against Mycobacterium tuberculosis Rv39 harboring embB GGC-CGC (G324R) mutation in embB by modified conventional agar proportion method
[15] = tested on: Mycobacterium tuberculosis; experiment: Antibacterial activity against Mycobacterium tuberculosis B53 harboring embB GAT-TAT (D328Y) mutation in embB by modified conventional agar proportion method
[16] = tested on: Mycobacterium tuberculosis; experiment: Antibacterial activity against HYG cassette-negative EMB-resistant Mycobacterium tuberculosis Rv44 harboring embB M306I mutant gene by modified conventional agar proportion method
[17] = tested on: Mycobacterium tuberculosis; experiment: Antibacterial activity against Mycobacterium tuberculosis B55 harboring embB ATG-GTG (M306V) mutation in embB by modified conventional agar proportion method
[18] = tested on: Mycobacterium tuberculosis; experiment: Antibacterial activity against HYG cassette-positive Mycobacterium tuberculosis BAS8 harboring embB M306I mutant gene by modified conventional agar proportion method
[19] = tested on: Mycobacterium tuberculosis; experiment: Antibacterial activity against Mycobacterium tuberculosis Rv44 harboring embB ATG-ATA (M306I) mutation in embB by modified conventional agar proportion method
[20] = tested on: Mycobacterium tuberculosis; experiment: Antibacterial activity against HYG cassette-negative EMB-resistant Mycobacterium tuberculosis B54 harboring embB M306I mutant gene by modified conventional agar proportion method
[21] = tested on: Mycobacterium tuberculosis; experiment: Antibacterial activity against Mycobacterium tuberculosis Rv23 harboring embB ATG-GTG (M306V) mutation in embB by modified conventional agar proportion method
[22] = tested on: Mycobacterium tuberculosis; experiment: Antibacterial activity against Mycobacterium tuberculosis B99 harboring embB CGC-CAC (R321H) mutation in embB by modified conventional agar proportion method
[23] = tested on: Mycobacterium tuberculosis; experiment: Antibacterial activity against Mycobacterium tuberculosis Rv7 harboring embB ATG-GTG (M306V) mutation in embB by modified conventional agar proportion method
[24] = tested on: Mycobacterium tuberculosis; experiment: Antibacterial activity against Mycobacterium tuberculosis Rv8 harboring embB ATG-GTG (M306V) mutation in embB by modified conventional agar proportion method
[25] = tested on: Mycobacterium tuberculosis; experiment: Antibacterial activity against Mycobacterium tuberculosis Rv18 harboring embB ATG-GTG (M306V) mutation in embB by modified conventional agar proportion method
[26] = tested on: Mycobacterium tuberculosis; experiment: Antibacterial activity against Mycobacterium tuberculosis B52 harboring embB ATG-GTG (M306V) mutation in embB by modified conventional agar proportion method
[27] = tested on: Mycobacterium tuberculosis; experiment: Antibacterial activity against Mycobacterium tuberculosis B92 harboring embB GAC-GCC (D354A) mutation in embB by modified conventional agar proportion method
[28] = tested on: Mycobacterium tuberculosis; experiment: Antibacterial activity against Mycobacterium tuberculosis B97 harboring embB ATG-ATC (M306I) mutation in embB by modified conventional agar proportion method
[29] = tested on: Mycobacterium tuberculosis; experiment: Antibacterial activity against HYG cassette-positive Mycobacterium tuberculosis RvAS3 harboring embB M306I mutant gene by modified conventional agar proportion method
[30] = tested on: Mycobacterium tuberculosis; experiment: Antibacterial activity against HYG cassette-positive Mycobacterium tuberculosis BAS6 harboring embB M306V mutant gene by modified conventional agar proportion method
[31] = tested on: Mycobacterium tuberculosis; experiment: Antibacterial activity against Mycobacterium tuberculosis Rv17 harboring embB ATG-GTG (M306V) mutation in embB by modified conventional agar proportion method
[32] = tested on: Mycobacterium tuberculosis; experiment: Antibacterial activity against HYG cassette-positive Mycobacterium tuberculosis B5402 harboring embB M306I mutant gene by modified conventional agar proportion method
[33] = tested on: Mycobacterium tuberculosis; experiment: Antibacterial activity against HYG cassette-positive Mycobacterium tuberculosis RvAS2 harboring embB M306V mutant gene by modified conventional agar proportion method
[34] = tested on: Mycobacterium tuberculosis; experiment: Antibacterial activity against Mycobacterium tuberculosis B95 harboring embB ATG-ATA (M306I) mutation in embB by modified conventional agar proportion method
[35] = tested on: Mycobacterium tuberculosis; experiment: Antibacterial activity against Mycobacterium tuberculosis Rv21 harboring embB GAT-TAT (D328Y) mutation in embB by modified conventional agar proportion method
[36] = tested on: Mycobacterium tuberculosis; experiment: Antibacterial activity against HYG cassette-positive Mycobacterium tuberculosis B5202 harboring embB M306V mutant gene by modified conventional agar proportion method
[37] = tested on: Mycobacterium tuberculosis; experiment: Antibacterial activity against Mycobacterium tuberculosis B74 harboring embB GAC-GGC (D300G) mutation in embB by modified conventional agar proportion method
[38] = tested on: Mycobacterium tuberculosis; experiment: Antibacterial activity against Mycobacterium tuberculosis B84 harboring embB ATG-ATC (M306I) mutation in embB by modified conventional agar proportion method
[39] = tested on: Mycobacterium tuberculosis; experiment: Antibacterial activity against HYG cassette-positive Mycobacterium tuberculosis Rv4402 harboring embB M306I mutant gene by modified conventional agar proportion method
[40] = tested on: Mycobacterium tuberculosis; experiment: Antibacterial activity against Mycobacterium tuberculosis B56 harboring embB ATG-GTG (M306V) mutation in embB by modified conventional agar proportion method
[41] = tested on: Mycobacterium tuberculosis; experiment: Antibacterial activity against Mycobacterium tuberculosis B51 harboring embB ATG-ACG (M306T) mutation in embB by modified conventional agar proportion method
[42] = tested on: Mycobacterium tuberculosis; experiment: Antibacterial activity against Mycobacterium tuberculosis B96 harboring embB GAT-TAT (D328Y) mutation in embB by modified conventional agar proportion method
[43] = tested on: Mycobacterium tuberculosis; experiment: Antibacterial activity against HYG cassette-negative EMB-resistant Mycobacterium tuberculosis B52 harboring embB M306V mutant gene by modified conventional agar proportion method
[44] = tested on: Mycobacterium tuberculosis; experiment: Antibacterial activity against Mycobacterium tuberculosis B54 harboring embB ATG-ATA (M306I) mutation in embB by modified conventional agar proportion method

Compound: CC[C@@H](CO)NCCN[C@@H](CC)CO [ETHAMBUTOL]
- MIC [1]: 20 µg/mL (≈ 97.9 µM)
- MIC [2]: 20 µg/mL (≈ 97.9 µM)
- MIC [3]: 20 µg/mL (≈ 97.9 µM)
- MIC [4]: 10 µg/mL (≈ 48.9 µM)
- MIC [5]: 10 µg/mL (≈ 48.9 µM)
- MIC [6]: 20 µg/mL (≈ 97.9 µM)
- MIC [7]: 40 µg/mL (≈ 196 µM)
- MIC [8]: 20 µg/mL (≈ 97.9 µM)
- MIC [9]: 20 µg/mL (≈ 97.9 µM)
- MIC [10]: 20 µg/mL (≈ 97.9 µM)
- MIC [11]: 20 µg/mL (≈ 97.9 µM)
- MIC [12]: 20 µg/mL (≈ 97.9 µM)
- MIC [13]: 20 µg/mL (≈ 97.9 µM)
- MIC [14]: 20 µg/mL (≈ 97.9 µM)
- MIC [15]: 20 µg/mL (≈ 97.9 µM)
- MIC [16]: 20 µg/mL (≈ 97.9 µM)
- MIC [17]: 20 µg/mL (≈ 97.9 µM)
- MIC [18]: 10 µg/mL (≈ 48.9 µM)
- MIC [19]: 20 µg/mL (≈ 97.9 µM)
- MIC [20]: 20 µg/mL (≈ 97.9 µM)
- MIC [21]: 20 µg/mL (≈ 97.9 µM)
- MIC [22]: 10 µg/mL (≈ 48.9 µM)
- MIC [23]: 20 µg/mL (≈ 97.9 µM)
- MIC [24]: 20 µg/mL (≈ 97.9 µM)
- MIC [25]: 20 µg/mL (≈ 97.9 µM)
- MIC [26]: 20 µg/mL (≈ 97.9 µM)
- MIC [27]: 20 µg/mL (≈ 97.9 µM)
- MIC [28]: 20 µg/mL (≈ 97.9 µM)
- MIC [29]: 10 µg/mL (≈ 48.9 µM)
- MIC [30]: 20 µg/mL (≈ 97.9 µM)
- MIC [31]: 20 µg/mL (≈ 97.9 µM)
- MIC [32]: 20 µg/mL (≈ 97.9 µM)
- MIC [33]: 20 µg/mL (≈ 97.9 µM)
- MIC [34]: 20 µg/mL (≈ 97.9 µM)
- MIC [35]: 20 µg/mL (≈ 97.9 µM)
- MIC [36]: 20 µg/mL (≈ 97.9 µM)
- MIC [37]: 10 µg/mL (≈ 48.9 µM)
- MIC [38]: 20 µg/mL (≈ 97.9 µM)
- MIC [39]: 20 µg/mL (≈ 97.9 µM)
- MIC [40]: 20 µg/mL (≈ 97.9 µM)
- MIC [41]: 20 µg/mL (≈ 97.9 µM)
- MIC [42]: 20 µg/mL (≈ 97.9 µM)
- MIC [43]: 20 µg/mL (≈ 97.9 µM)
- MIC [44]: 20 µg/mL (≈ 97.9 µM)
